Results on four compounds are retold here after paper PMC5564600 (Oncotarget, 2017).

What all share (assay): biochemical
What all share (format): binding

Assay [1] concerns the target T1, panel of 442 kinases (Homo sapiens, UniProt Q56UN5).
T1 construct: purchased Ambit Biosciences (scanMAXX KINOMEscan)
T1 sequence (Q56UN5 1-1328): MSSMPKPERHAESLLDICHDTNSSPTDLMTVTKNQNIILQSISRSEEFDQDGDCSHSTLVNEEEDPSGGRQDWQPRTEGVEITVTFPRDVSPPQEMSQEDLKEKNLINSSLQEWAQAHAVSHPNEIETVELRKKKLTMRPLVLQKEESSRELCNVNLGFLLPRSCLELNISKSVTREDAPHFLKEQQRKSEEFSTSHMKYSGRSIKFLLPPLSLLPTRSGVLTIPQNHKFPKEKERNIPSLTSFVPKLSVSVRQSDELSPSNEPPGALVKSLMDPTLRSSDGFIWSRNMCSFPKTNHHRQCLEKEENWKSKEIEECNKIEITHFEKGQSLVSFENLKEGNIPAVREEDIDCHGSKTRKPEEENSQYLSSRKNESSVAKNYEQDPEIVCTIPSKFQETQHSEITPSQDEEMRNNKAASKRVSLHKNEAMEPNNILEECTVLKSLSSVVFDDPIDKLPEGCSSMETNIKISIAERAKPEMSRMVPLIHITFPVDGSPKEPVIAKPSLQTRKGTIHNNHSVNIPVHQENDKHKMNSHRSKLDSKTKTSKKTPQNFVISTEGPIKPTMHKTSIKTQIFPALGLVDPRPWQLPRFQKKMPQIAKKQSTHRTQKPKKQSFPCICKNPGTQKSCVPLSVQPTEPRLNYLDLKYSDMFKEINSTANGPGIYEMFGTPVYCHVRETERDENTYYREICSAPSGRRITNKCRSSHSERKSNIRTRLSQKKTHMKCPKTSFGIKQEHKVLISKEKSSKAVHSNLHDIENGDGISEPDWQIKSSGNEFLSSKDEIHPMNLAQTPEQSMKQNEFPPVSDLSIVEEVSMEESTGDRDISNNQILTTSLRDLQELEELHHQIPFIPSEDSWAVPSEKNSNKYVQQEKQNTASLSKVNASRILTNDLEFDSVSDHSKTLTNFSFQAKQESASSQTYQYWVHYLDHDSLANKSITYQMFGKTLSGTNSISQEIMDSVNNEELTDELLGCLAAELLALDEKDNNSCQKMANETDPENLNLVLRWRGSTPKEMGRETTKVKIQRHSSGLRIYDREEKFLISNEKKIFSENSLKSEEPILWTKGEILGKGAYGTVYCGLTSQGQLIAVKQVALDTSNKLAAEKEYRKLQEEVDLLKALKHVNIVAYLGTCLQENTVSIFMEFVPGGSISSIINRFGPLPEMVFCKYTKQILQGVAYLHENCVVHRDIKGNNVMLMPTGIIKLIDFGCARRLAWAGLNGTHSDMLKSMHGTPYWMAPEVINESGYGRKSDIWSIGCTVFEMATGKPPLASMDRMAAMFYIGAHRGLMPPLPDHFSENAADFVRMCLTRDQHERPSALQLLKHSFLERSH
Conditions: kinase YSK4; for remaining activity at 1 µM: read-out: YSK4 (% of control at 1 µM).

Assay [2] has as its target T2, panel of 442 kinases (Homo sapiens, UniProt Q9BX84).
T2 construct: purchased Ambit Biosciences (scanMAXX KINOMEscan)
The note with it: kinase TRPM6; for remaining activity at 1 µM: read-out: TRPM6 (% of control at 1 µM).

In assay [3] the target is T3, panel of 442 kinases (Homo sapiens, UniProt P04049).
T3 construct: purchased Ambit Biosciences (scanMAXX KINOMEscan)
T3 sequence (P04049 whole entry): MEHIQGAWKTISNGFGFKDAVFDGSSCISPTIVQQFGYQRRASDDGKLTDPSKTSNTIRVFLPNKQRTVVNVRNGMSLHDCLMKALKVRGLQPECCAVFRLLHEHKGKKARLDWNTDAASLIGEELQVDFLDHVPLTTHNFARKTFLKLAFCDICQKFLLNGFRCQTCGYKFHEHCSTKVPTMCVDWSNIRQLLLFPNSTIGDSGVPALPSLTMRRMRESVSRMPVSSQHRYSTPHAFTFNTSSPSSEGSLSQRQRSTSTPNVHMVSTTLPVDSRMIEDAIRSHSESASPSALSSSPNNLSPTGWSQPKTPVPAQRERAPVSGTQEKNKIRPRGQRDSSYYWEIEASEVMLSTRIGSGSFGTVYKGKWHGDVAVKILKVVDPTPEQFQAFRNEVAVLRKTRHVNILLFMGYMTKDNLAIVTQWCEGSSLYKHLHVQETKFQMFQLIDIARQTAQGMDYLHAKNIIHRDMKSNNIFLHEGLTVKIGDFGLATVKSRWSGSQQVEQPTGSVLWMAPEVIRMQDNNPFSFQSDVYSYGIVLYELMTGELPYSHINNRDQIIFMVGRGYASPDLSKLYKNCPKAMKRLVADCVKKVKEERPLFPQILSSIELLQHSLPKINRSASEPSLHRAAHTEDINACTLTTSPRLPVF
The note with it: kinase RAF1; for remaining activity at 1 µM: read-out: RAF1 (% of control at 1 µM).

The target in assay [4] is T4, panel of 442 kinases (Homo sapiens, UniProt O14733).
T4 construct: purchased Ambit Biosciences (scanMAXX KINOMEscan)
T4 sequence (O14733 1-419): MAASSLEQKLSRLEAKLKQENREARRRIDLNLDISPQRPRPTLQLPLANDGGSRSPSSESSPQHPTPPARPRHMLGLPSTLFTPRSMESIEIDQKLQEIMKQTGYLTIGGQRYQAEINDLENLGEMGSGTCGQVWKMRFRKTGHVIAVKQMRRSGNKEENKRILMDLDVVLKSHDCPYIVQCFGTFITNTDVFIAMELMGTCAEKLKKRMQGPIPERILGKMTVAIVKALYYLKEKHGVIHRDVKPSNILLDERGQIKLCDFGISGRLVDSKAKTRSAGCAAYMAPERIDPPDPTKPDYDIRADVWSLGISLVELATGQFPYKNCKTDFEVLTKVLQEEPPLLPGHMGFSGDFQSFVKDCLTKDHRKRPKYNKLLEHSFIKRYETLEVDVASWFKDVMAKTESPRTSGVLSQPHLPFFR
The note with it: kinase MKK7; for remaining activity at 1 µM: read-out: % of control at 1 µM.

The target of assay [5] is T5, panel of 442 kinases (Homo sapiens, UniProt Q8IVW4).
T5 construct: purchased Ambit Biosciences (scanMAXX KINOMEscan)
The note with it: CDKL3; for remaining activity at 1 µM: read-out: % of control at 1 µM.

Assay [6] has as its target T6, panel of 442 kinases (Homo sapiens, UniProt Q13164).
T6 construct: purchased Ambit Biosciences (scanMAXX KINOMEscan)
The note with it: ERK5; for remaining activity at 1 µM: read-out: % of control at 1 µM.

Assay [7] has as its target T7, panel of 442 kinases (Homo sapiens, UniProt Q16620).
T7 construct: purchased Ambit Biosciences (scanMAXX KINOMEscan)
The note with it: kinase TRKB; for remaining activity at 1 µM: read-out: TRKB (% of control at 1 µM).

Assay [8] has as its target T8, panel of 442 kinases (Homo sapiens, UniProt O14965).
T8 construct: purchased Ambit Biosciences (scanMAXX KINOMEscan)
T8 sequence (O14965 1-403): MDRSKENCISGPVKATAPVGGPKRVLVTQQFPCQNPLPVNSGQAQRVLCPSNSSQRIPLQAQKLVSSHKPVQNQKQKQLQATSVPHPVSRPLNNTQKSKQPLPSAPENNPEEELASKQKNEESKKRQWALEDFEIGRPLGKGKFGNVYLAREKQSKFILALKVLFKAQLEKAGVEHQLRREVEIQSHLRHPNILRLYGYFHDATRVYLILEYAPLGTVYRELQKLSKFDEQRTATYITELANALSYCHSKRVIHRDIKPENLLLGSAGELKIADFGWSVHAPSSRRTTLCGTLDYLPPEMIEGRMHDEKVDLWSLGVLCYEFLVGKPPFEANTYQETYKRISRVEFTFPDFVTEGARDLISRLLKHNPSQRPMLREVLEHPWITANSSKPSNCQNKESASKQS
The note with it: AURKA; for remaining activity at 1 µM: read-out: % of control at 1 µM.

Assay [9] addresses T9, panel of 442 kinases (Homo sapiens, UniProt Q13557).
T9 construct: purchased Ambit Biosciences (scanMAXX KINOMEscan)
The note with it: CAMK2D; for remaining activity at 1 µM: read-out: % of control at 1 µM.

The mark [10] stands for this setting: 10 µM, read-out: % of control at 10 µM.

T6 sequence (Q13164 whole entry): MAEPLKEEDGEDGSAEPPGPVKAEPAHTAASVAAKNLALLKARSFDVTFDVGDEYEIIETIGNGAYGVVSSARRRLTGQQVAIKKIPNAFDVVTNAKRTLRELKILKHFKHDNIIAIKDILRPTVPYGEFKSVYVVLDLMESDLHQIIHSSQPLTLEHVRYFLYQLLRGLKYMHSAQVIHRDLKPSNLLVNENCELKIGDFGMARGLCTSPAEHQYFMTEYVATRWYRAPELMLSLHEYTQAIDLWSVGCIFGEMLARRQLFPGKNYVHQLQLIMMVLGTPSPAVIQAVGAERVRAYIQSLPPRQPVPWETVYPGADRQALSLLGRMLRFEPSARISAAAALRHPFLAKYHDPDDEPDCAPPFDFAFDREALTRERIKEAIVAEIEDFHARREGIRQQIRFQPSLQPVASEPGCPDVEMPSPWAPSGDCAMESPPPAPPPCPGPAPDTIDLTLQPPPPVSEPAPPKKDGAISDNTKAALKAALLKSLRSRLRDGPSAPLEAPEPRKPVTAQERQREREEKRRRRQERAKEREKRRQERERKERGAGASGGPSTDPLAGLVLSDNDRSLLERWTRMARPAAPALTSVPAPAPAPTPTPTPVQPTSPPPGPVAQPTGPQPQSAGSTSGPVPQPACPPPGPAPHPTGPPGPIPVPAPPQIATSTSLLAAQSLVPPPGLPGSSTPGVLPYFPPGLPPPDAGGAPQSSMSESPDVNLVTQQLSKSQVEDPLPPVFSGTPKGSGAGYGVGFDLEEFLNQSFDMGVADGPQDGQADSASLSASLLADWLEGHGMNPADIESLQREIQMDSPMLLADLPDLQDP
T7 sequence (Q16620 32-822): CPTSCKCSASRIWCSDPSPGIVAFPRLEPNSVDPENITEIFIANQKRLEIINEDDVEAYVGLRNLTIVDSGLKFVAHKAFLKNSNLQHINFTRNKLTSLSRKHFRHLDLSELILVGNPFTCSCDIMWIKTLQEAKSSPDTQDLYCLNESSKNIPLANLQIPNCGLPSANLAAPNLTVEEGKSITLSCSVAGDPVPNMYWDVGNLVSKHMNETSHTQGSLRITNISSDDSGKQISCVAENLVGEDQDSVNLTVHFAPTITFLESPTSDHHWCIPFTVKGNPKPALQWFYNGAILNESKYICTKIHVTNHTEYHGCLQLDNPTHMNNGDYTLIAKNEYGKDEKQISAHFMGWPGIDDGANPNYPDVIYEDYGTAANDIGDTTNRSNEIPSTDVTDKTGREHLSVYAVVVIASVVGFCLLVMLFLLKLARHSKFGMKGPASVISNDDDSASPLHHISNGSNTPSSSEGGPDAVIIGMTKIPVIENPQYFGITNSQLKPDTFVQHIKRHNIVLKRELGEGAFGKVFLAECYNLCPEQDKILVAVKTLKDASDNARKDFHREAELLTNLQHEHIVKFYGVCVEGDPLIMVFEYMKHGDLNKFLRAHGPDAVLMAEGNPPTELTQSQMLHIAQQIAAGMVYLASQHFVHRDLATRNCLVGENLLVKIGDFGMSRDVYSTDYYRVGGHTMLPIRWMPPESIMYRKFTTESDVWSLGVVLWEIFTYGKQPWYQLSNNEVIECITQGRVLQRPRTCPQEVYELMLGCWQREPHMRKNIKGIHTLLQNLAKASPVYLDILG
T9 sequence (Q13557 whole entry): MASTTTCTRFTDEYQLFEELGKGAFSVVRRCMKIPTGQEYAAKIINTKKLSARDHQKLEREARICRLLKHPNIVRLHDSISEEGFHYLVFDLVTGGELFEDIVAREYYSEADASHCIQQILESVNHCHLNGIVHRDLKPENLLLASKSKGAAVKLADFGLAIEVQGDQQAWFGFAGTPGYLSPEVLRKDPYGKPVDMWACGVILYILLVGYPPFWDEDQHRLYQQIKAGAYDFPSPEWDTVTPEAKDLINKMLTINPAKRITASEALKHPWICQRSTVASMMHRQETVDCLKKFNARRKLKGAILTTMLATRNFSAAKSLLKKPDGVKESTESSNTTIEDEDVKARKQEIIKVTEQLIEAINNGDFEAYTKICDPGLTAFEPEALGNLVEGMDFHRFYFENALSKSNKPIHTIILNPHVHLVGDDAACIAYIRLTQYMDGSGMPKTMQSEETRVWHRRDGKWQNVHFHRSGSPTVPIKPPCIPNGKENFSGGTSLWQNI
T2 sequence (Q9BX84 whole entry): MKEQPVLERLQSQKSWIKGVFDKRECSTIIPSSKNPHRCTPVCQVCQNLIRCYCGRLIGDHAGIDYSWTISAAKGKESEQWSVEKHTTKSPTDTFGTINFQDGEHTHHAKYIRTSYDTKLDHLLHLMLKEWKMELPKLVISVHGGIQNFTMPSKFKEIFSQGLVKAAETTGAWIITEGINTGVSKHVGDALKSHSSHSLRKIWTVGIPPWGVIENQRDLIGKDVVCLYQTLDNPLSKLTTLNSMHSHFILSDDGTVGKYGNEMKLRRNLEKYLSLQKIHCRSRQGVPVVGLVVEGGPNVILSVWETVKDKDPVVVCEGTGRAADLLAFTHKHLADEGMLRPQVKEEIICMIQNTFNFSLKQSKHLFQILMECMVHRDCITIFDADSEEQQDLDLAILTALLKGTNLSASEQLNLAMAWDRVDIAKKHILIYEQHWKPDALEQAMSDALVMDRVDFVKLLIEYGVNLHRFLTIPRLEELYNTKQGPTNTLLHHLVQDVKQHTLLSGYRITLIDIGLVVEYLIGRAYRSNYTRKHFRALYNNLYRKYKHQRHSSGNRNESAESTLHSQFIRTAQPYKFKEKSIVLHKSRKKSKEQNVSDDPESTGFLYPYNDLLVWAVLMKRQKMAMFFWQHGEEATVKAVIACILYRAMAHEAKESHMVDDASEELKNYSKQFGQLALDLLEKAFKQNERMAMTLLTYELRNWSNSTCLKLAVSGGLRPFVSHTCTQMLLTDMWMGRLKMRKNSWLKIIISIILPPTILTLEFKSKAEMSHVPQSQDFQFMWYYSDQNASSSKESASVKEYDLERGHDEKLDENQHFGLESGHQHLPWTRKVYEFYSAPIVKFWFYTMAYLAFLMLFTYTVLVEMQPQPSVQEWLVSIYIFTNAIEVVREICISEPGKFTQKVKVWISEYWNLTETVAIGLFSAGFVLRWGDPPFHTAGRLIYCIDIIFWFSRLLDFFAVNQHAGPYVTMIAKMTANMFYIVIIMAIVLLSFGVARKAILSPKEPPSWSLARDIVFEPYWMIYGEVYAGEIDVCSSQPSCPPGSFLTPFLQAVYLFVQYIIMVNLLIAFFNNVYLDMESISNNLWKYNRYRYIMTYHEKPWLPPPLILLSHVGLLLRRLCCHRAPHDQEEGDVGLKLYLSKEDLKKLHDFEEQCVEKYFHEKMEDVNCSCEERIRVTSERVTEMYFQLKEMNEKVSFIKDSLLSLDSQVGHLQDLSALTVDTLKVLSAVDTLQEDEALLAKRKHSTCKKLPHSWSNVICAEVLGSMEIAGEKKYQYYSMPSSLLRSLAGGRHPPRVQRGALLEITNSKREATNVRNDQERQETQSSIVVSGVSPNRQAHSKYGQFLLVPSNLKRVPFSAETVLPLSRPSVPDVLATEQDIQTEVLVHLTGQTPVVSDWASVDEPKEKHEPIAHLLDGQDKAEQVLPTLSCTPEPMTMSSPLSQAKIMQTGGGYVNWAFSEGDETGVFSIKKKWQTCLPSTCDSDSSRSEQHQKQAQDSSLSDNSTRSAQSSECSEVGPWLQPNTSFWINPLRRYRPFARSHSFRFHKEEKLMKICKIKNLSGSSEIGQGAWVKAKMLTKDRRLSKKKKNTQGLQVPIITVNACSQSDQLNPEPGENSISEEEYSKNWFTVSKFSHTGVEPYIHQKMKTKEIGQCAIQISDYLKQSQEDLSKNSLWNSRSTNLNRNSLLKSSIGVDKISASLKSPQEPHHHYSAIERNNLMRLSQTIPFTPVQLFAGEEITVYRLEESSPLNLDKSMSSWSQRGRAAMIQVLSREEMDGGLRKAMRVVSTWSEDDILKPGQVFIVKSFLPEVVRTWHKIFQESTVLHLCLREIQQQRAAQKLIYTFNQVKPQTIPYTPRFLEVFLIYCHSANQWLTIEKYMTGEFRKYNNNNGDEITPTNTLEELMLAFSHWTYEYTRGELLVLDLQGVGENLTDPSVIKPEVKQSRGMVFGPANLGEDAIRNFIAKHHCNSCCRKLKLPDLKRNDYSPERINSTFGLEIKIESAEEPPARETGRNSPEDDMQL

Take `Nc1cc(C(F)(F)F)c(-c2cc(N3CCOCC3)nc(N3CCOCC3)n2)cn1` [Buparlisib]: the remaining activity at 1 µM amounted to 72% in [1]; 76% in [2]; 100% in assay [3]; 100% in [4]; 92% in assay [5]; 84% in assay [6]. Also, the remaining activity at 1 µM in assay [7] was found to be 96%; in assay [8] it was 100%; in assay [9] it was 100%. Moreover, the remaining activity at 10 µM was determined as 78% in assay [1] (10 µM, read-out: YSK4 (% of control at 10 µM)); 75% in [2] (10 µM, read-out: TRPM6 (% of control at 10 µM)); 100% in assay [3] (10 µM, read-out: RAF1 (% of control at 10 µM)); 99% in [4] (setting [10]); 100% in assay [5] (setting [10]); 100% in assay [6] (setting [10]). Further, the remaining activity at 10 µM in assay [7] (10 µM, read-out: TRKB (% of control at 10 µM)) was 80%; in assay [8] (setting [10]) it was 91%; in assay [9] (setting [10]), 100%.

On to `Cn1c(=O)n(-c2ccc(C(C)(C)C#N)cc2)c2c3cc(-c4cnc5ccccc5c4)ccc3ncc21` [Dactolisib, 2-methyl-2-[4-(3-methyl-2-oxo-8-quinolin-3-yl-2,3-dihydroimidazo[4,5-c]quinolin-1-yl)-phenyl] propionitrile], for which the remaining activity at 1 µM in assay [1] was 28%; in [2], 62%; in assay [3], 94%; in assay [4], 100%; in assay [5], 57%; in [7] it was 61%. Besides, the results for the remaining activity at 1 µM in [8] and in [9] were 100% and 79%, respectively.

In the case of `COc1ncc(-c2ccc3nccc(-c4ccnnc4)c3c2)cc1NS(=O)(=O)c1ccc(F)cc1F` [Omipalisib], the remaining activity at 1 µM is 77% in [1]; 100% in assay [2]; 100% in [3]; 100% in assay [4]; 100% in assay [5]; 87% in [6]. Besides, the remaining activity at 1 µM in assay [7], in [8] and in assay [9] was 100% each time.

On to `FC(F)c1nc2ccccc2n1-c1nc(N2CCOCC2)nc(N2CCOCC2)n1` [ZSTK474, 2-(difluoromethyl)-1-[4,6-di(4-morpholinyl)-1,3,5-triazin-2-yl]-1H-benzimidazole], for which the remaining activity at 1 µM amounted to 100% in [1]; 74% in [2]; 73% in assay [3]; 100% in [4]; 100% in assay [5]; 97% in [6]. Also, the remaining activity at 1 µM in [7] amounted to 100%; in assay [8], 100%; in assay [9] it was 88%.
